Measured values published in patent publication US9161935B2 (TEVA PHARMACEUTICAL INDUSTRIES, LTD., priority 2012, dated 2015).

System: Sub-Populations of Crohn's Disease Patients
Test: CD-LAQ-201 sub-populations of Crohn's disease patients (Example 2)
Type: in vivo, human
Details: for Remission - N (%): % / Remission - N (%): N: week 8
Procedure: This study was conducted according and with similar requirements as presented in Example 1. […] Patients, who have received anti-TNFαs in the past, tend to reflect a more severe, refractory segment of the Crohn's disease population. […] This sub-cohort analysis describes remission rates at week 8 for patients who were classified as having a predominantly inflammatory disease (based on the Montreal classifications) versus those that have a fibrostenotic or penetrating disease.

[1] = Laq 0.5 mg, Oral steroids on Baseline NO
[2] = Laq 0.5 mg, Oral steroids on Baseline YES
[3] = Laq 0.5 mg, Previous Operations NO
[4] = Laq 0.5 mg, Previous Operations YES
[5] = Laq 0.5 mg, Previous use of anti-TNFαs NO
[6] = Laq 0.5 mg, Previous use of anti-TNFαs YES
[7] = Laq 1.0 mg, Oral steroids on Baseline NO
[8] = Laq 1.0 mg, Oral steroids on Baseline YES
[9] = Laq 1.0 mg, Previous Operations NO
[10] = Laq 1.0 mg, Previous Operations YES
[11] = Laq 1.0 mg, Previous use of anti-TNFαs NO
[12] = Laq 1.0 mg, Previous use of anti-TNFαs YES

CCN(C(=O)c1c(O)c2c(Cl)cccc2n(C)c1=O)c1ccccc1 [laquinimod]
effect on remission at week 8 with or without previous anti-TNFαs (0.5 mg): remains robust on both sub-populations | effect on remission at week 8 in fibrostenotic or penetrating disease (0.5 mg or 1 mg): no effect | effectiveness in anti-TNF refractory patients (FIG. 1) (0.5 mg/day laquinimod): robustly effective | effectiveness in anti-TNF refractory patients (FIG. 1) (1 mg/day laquinimod): effective relative to placebo | CDAI Change from Baseline - Mean ± SD (Laq 0.5 mg, Fibrostenotic): −9.3 | Responders70 - N (%): % (Laq 0.5 mg, Fibrostenotic): 42.9% | Responders70 - N (%): N (Laq 0.5 mg, Fibrostenotic): 3 | Responders100 - N (%): % (Laq 0.5 mg, Fibrostenotic): 28.6% | Responders100 - N (%): N (Laq 0.5 mg, Fibrostenotic): 2 | Remission - N (%): % (Laq 0.5 mg, Fibrostenotic): 14.3% | Remission - N (%): N (Laq 0.5 mg, Fibrostenotic): 1 | CDAI Change from Baseline - Mean ± SD (Laq 0.5 mg, Inflammatory): −125.1 | Responders70 - N (%): % (Laq 0.5 mg, Inflammatory): 68.2% | Responders70 - N (%): N (Laq 0.5 mg, Inflammatory): 15 | Responders100 - N (%): % (Laq 0.5 mg, Inflammatory): 63.6% | Responders100 - N (%): N (Laq 0.5 mg, Inflammatory): 14 | Remission - N (%): % (Laq 0.5 mg, Inflammatory): about 60% | Remission - N (%): N (Laq 0.5 mg, Inflammatory): 13 | Remission - N (%): % (Laq 0.5 mg, Inflammatory, listed as Laq): 59.1% | CDAI Change from Baseline - Mean ± SD [1]: −85.3 | Responders70 - N (%): % [1]: 57.9% | Responders70 - N (%): N [1]: 11 | Responders100 - N (%): % [1]: 47.4% | Responders100 - N (%): N [1]: 9 | Remission - N (%): % [1]: about 40% | Remission - N (%): N [1]: 8 | Remission - N (%): % (Laq 0.5 mg, Oral steroids on Baseline NO, listed as Laq): 42.1% | CDAI Change from Baseline - Mean ± SD [2]: −119.8 | Responders70 - N (%): % [2]: 70.0% | Responders70 - N (%): N [2]: 7 | Responders100 - N (%): % [2]: 70.0% | Responders100 - N (%): N [2]: 7 | Remission - N (%): % [2]: approximately 60% | Remission - N (%): N [2]: 6 | Remission - N (%): % (Laq 0.5 mg, Oral steroids on Baseline YES, listed as Laq): 60.0% | CDAI Change from Baseline - Mean ± SD [3]: −118.1 | Responders70 - N (%): % [3]: 62.5% | Responders70 - N (%): N [3]: 15 | Responders100 - N (%): % [3]: 58.3% | Responders100 - N (%): N [3]: 14 | Remission - N (%): % [3]: higher than 50% | Remission - N (%): N [3]: 13 | Remission - N (%): % (Laq 0.5 mg, Previous Operations NO, listed as Laq): 54.2% | CDAI Change from Baseline - Mean ± SD [4]: 3.2 | Responders70 - N (%): % [4]: 60.0% | Responders70 - N (%): N [4]: 3 | Responders100 - N (%): % [4]: 40.0% | Responders100 - N (%): N [4]: 2 | Remission - N (%): % [4]: 20.0% | Remission - N (%): N [4]: 1 | CDAI Change from Baseline - Mean ± SD [5]: −88.2 | Responders70 - N (%): % [5]: 63.6% | Responders70 - N (%): N [5]: 7 | Responders100 - N (%): % [5]: 54.5% | Responders100 - N (%): N [5]: 6 | Remission - N (%): % [5]: 54.5% | Remission - N (%): N [5]: 6 | CDAI Change from Baseline - Mean ± SD [6]: −102.7 | Responders70 - N (%): % [6]: 61.1% | Responders70 - N (%): N [6]: 11 | Responders100 - N (%): % [6]: 55.6% | Responders100 - N (%): N [6]: 10 | Remission - N (%): % [6]: 44.4% | Remission - N (%): N [6]: 8 | CDAI Change from Baseline - Mean ± SD (Laq 1.0 mg, Fibrostenotic): −65.8 | Responders70 - N (%): % (Laq 1.0 mg, Fibrostenotic): 41.7% | Responders70 - N (%): N (Laq 1.0 mg, Fibrostenotic): 5 | Responders100 - N (%): % (Laq 1.0 mg, Fibrostenotic): 41.7% | Responders100 - N (%): N (Laq 1.0 mg, Fibrostenotic): 5 | Remission - N (%): % (Laq 1.0 mg, Fibrostenotic): 16.7% | Remission - N (%): N (Laq 1.0 mg, Fibrostenotic): 2 | CDAI Change from Baseline - Mean ± SD (Laq 1.0 mg, Inflammatory): −76.7 | Responders70 - N (%): % (Laq 1.0 mg, Inflammatory): 61.1% | Responders70 - N (%): N (Laq 1.0 mg, Inflammatory): 11 | Responders100 - N (%): % (Laq 1.0 mg, Inflammatory): 38.9% | Responders100 - N (%): N (Laq 1.0 mg, Inflammatory): 7 | Remission - N (%): % (Laq 1.0 mg, Inflammatory): 33.3% | Remission - N (%): N (Laq 1.0 mg, Inflammatory): 6 | CDAI Change from Baseline - Mean ± SD [7]: −59.4 | Responders70 - N (%): % [7]: 50.0% | Responders70 - N (%): N [7]: 9 | Responders100 - N (%): % [7]: 33.3% | Responders100 - N (%): N [7]: 6 | Remission - N (%): % [7]: 22.2% | Remission - N (%): N [7]: 4 | CDAI Change from Baseline - Mean ± SD [8]: −93.5 | Responders70 - N (%): % [8]: 58.3% | Responders70 - N (%): N [8]: 7 | Responders100 - N (%): % [8]: 50.0% | Responders100 - N (%): N [8]: 6 | Remission - N (%): % [8]: 33.3% | Remission - N (%): N [8]: 4 | CDAI Change from Baseline - Mean ± SD [9]: −77.9 | Responders70 - N (%): % [9]: 55.6% | Responders70 - N (%): N [9]: 10 | Responders100 - N (%): % [9]: 38.9% | Responders100 - N (%): N [9]: 7 | Remission - N (%): % [9]: 33.3% | Remission - N (%): N [9]: 6 | CDAI Change from Baseline - Mean ± SD [10]: −66.0 | Responders70 - N (%): % [10]: 50.0% | Responders70 - N (%): N [10]: 6 | Responders100 - N (%): % [10]: 41.7% | Responders100 - N (%): N [10]: 5 | Remission - N (%): % [10]: 16.7% | Remission - N (%): N [10]: 2 | CDAI Change from Baseline - Mean ± SD [11]: −38.5 | Responders70 - N (%): % [11]: 27.3% | Responders70 - N (%): N [11]: 3 | Responders100 - N (%): % [11]: 27.3% | Responders100 - N (%): N [11]: 3 | Remission - N (%): % [11]: 18.2% | Remission - N (%): N [11]: 2 | CDAI Change from Baseline - Mean ± SD [12]: −36.8 | Responders70 - N (%): % [12]: 27.8% | Responders70 - N (%): N [12]: 5 | Responders100 - N (%): % [12]: 27.8%
